Measurements taken from patent US20230025510A1, “BIARYL ETHER-TYPE QUINAZOLINE DERIVATIVES” (DAIICHI SANKYO COMPANY, LIMITED, priority 2018, published 2023).

Legend:
Format in all cases: cell-based
Ba/F3-Mock cells = experiment: Cell proliferation suppression test (CellTiter-Glo, GI50), Ba/F3-Mock; details: Mus musculus, BaF3, 72 h, 5 ng/mL IL-3, 3 days, N=4
Method in brief: (§1)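 Ba/F3 lines in RPMI 1640/10% FBS without puromycin; IL-3 5 ng/mL added for Mock, EGF 100 ng/mL for EGFR WT. Cells treated 3 days at 37 °C, 5% CO2; ATP measured by CellTiter-Glo 2.0 on day 0 and day 3 (N=4). GI50 is the concentration inhibiting 50% of day 0–3 proliferation.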

[1] = tested on: Ba/F3-EGFR ins. ASV cells; experiment: Cell proliferation suppression test (CellTiter-Glo, GI50), Ba/F3-EGFR ins. ASV; details: Mus musculus, 72 h, 3 days, N=4
Method in brief: as §1

Ba/F3-EGFR WT cells = experiment: Cell proliferation suppression test (CellTiter-Glo, GI50), Ba/F3-EGFR WT; details: Mus musculus, 72 h, 100 ng/mL EGF, 3 days, N=4
Method in brief: as §1

[2] = tested on: Ba/F3-EGFR ins. SVD cells; experiment: Cell proliferation suppression test (CellTiter-Glo, GI50), Ba/F3-EGFR ins. SVD; details: Mus musculus, 72 h, 3 days, N=4
Method in brief: as §1

Row | GI50 [1] [nM] | GI50 (Ba/F3-EGFR WT cells) [nM] | GI50 [2] [nM] | SMILES | GI50 (Ba/F3-Mock cells) [nM]
1 | 43.9 | 733 | 210 | COc1cc2ncnc(Nc3ccc(Oc4nc(-c5nnc(C6CC6)o5)cs4)cc3F)c2cc1NC(=O)/C=C/CN1CC[C@@H](F)C1 [Example 62, (2E)-N-[4-(4-{[4-(5-Cyclopropyl-1,3,4-oxadiazol-2-yl)-1,3-thiazol-2-yl]oxy}-2-fluoroanilino)-7-methoxyquinazolin-6-yl]-4-[(3R)-3-fluoropyrrolidin-1-yl]but-2-enamide] | 1490
2 | 49.5 | 129 | 81.8 | COc1cc2ncnc(Nc3ccc(Oc4nc(-c5nnc(C6CC6)o5)cs4)cc3F)c2cc1NC(=O)/C=C/CN1CC[C@@H](OC)C1 [Example 63, (2E)-N-[4-(4-{[4-(5-Cyclopropyl-1,3,4-oxadiazol-2-yl)-1,3-thiazol-2-yl]oxy}-2-fluoroanilino)-7-methoxyquinazolin-6-yl]-4-[(3R)-3-methoxypyrrolidin-1-yl]but-2-enamide] | 1060
